US11008290B2, “Halogenated quinoline derivatives as antimicrobial agents” (University of Florida Research Foundation, Incorporated, priority 2015, dated 2021)
Converted amounts (≈) assume the structure as drawn. “And” between values parts separate entries of the source, which are not always exact repeats. Equal entries are not always repeated. Where two headings read alike, the source gives them in different places. Marks after values point to notes of the source that are not given here. One block for each molecule: values may come before it.

Tests used:
A. baumannii = assay: MIC, antibacterial profile of broxyquinoline and HQ-1 (FIG. 2A); assay type: cell-based, Acinetobacter baumannii
S. epidermidis = assay: as above; assay type: cell-based; settings: Staphylococcus epidermidis
S. aureus = assay: as above; assay type: cell-based; settings: Staphylococcus aureus
human red blood cells = assay: Hemolysis assay; assay type: cell-based
Protocol: Freshly drawn human red blood cells (hRBC with ethylenediaminetetraacetic acid (EDTA) as an anticoagulant) were washed with Tris-buffered saline (0.01M Tris-base, 0.155M sodium chloride (NaCl), pH 7.2) and centrifuged for 5 minutes at 3500 rpm. The washing was repeated three times with the buffer. In 96-well plate, the test compounds were added to the buffer. […] The plate was then incubated for 1 hour at 37° C. After incubation, the plate is centrifuged for 5 minutes at 3500 rpm. Then 80 μL of the supernatant were transferred to another 96-well plate and the Optical Density (OD) was read at 405 nm. […] The percent of hemolysis was calculated as (OD405 of the compound-OD405 DMSO)/(OD405 Triton X-OD405 buffer).

[1] = system: vancomycin-resistant Enterococcus faecium (VRE, ATCC 700221); assay: Minimum inhibitory concentration (MIC) susceptibility assay, broth microdilution; assay type: cell-based
Protocol: (§1) The minimum inhibitory concentration (MIC) for each compound was determined by the broth microdilution method as recommended by the Clinical and Laboratory Standards Institute (CLSI). In a 96-well plate, eleven two-fold serial dilutions of each compound were made in a final volume of 100 μL Luria Broth. Each well was inoculated with ˜10^5 bacterial cells at the initial time of incubation, prepared from a fresh log phase culture (OD600 of 0.5 to 1.0 depending on bacterial strain). […] The concentration range tested for each compound during this study was 0.10 to 100 μM. DMSO served as the vehicle and negative control in each microdilution MIC assay. DMSO was serially diluted with a top concentration of 1% v/v. Bacterial strains used: methicillin-resistant Staphylococcus aureus-2 (MRSA-2; clinical isolate from Shands Hospital in Gainesville, Fla.), methicillin-resistant Staphylococcus epidermidis (MRSE; ATCC 35984), vancomycin-resistant Enterococcus faecium (VRE, ATCC 700221).

[2] = system: methicillin-resistant Staphylococcus epidermidis (MRSE; ATCC 35984); assay: as above; assay type: cell-based; settings: for MIC: Table 2, ATCC 35984, read-out: MRSE MIC
Protocol: as §1

[3] = system: VRE (ATCC 700221) planktonic cells and biofilms; assay: Calgary Biofilm Device (CBD) MBC/MBEC determination; assay type: cell-based, Enterococcus faecium; settings: CBD; for MBC: planktonic killing, first value of cell
Protocol: (§2) Biofilm eradication experiments were performed using the Calgary Biofilm Device to determine MBC/MBEC values for various compounds of interest (Innovotech, product code: 19111). The Calgary device (96-well plate with lid containing 96 total pegs to establish biofilms; 1 peg/well) was inoculated with 125 μL of a mid-log phase culture diluted 1,000-fold in tryptic soy broth with 0.5% glucose (TSBG) to establish bacterial biofilms after incubation at 37° C. for 24 hours. The lid of the Calgary device was then removed, washed and transferred to another 96-well plate containing 2-fold serial dilutions of the test compounds (the “challenge plate”). The total volume of media with compound in each well in the challenge plate was 150 μL. The Calgary device was then incubated at 37° C. for 24 hours. The lid was then removed from the challenge plate and MBC/MBEC values were determined using different final assays. […] The MBC values were determined as the concentration giving a lack of visible bacterial growth (e.g., turbidity). For determination of MBEC values, the Calgary device lid (with attached pegs/treated biofilms) was transferred to a new 96-well plate containing 150 μL of fresh TSBG media in each well and incubated for 24 hours at 37° C. to allow viable biofilms to grow and disperse resulting in turbidity after the incubation period. […] In select experiments, treated pegs from the Calgary device were removed from lead biofilm eradicators after final incubation, sonicated for 30 minutes in PBS and plated out to determine biofilm cell killing (e.g., colony forming unit per milliliter, CFU/mL).

[4] = system: MRSE (ATCC 35984) planktonic cells and biofilms; assay: as above; assay type: cell-based, Staphylococcus epidermidis; settings: CBD; for MBC: planktonic killing, first value of cell
Protocol: as §2

MRSA-2 = assay: Mechanistic investigations with metal(II)-cations (MIC assay with 200 μM metal salt); assay type: cell-based, Staphylococcus aureus; settings: MRSA-2
Protocol: as §1

MRSA BAA-1707 = assay: Calgary Biofilm Device (CBD) MBC/MBEC determination; assay type: cell-based, Staphylococcus aureus; settings: Table 4, CBD
Protocol: as §2

[5] = system: MRSA-2 planktonic cells and biofilms; assay: as above; assay type: cell-based, Staphylococcus aureus; settings: CBD; for MBC: planktonic killing, first value of MBC/MBEC cell
Protocol: as §2

[6] = system: methicillin-resistant Staphylococcus aureus-2 (MRSA-2; clinical isolate); assay: Minimum inhibitory concentration (MIC) susceptibility assay, broth microdilution; assay type: cell-based; settings: Staphylococcus, MRSA
Protocol: as §1

[7] = system: MRSA-2, MRSE 35984, VRE 700221; assay: MIC assays, range stated over the three drug-resistant pathogens; assay type: cell-based; settings: range over MRSA-2, MRSE, read-out: MIC against these drug-resistant pathogens
Protocol: as §1

[8] = Table 2, biofilm eradication, second value of cell

SMILES: Oc1c(Br)cc(Br)c2cccnc12 [Broxyquinoline]
MIC (A. baumannii; Acinetobacter baumannii, read-out: MIC): 12.5 µM and 4 µg/mL
MIC (S. epidermidis): 12.5 µM and 4 µg/mL
MIC (S. aureus): 12.5 µM and 4 µg/mL

SMILES: Cc1ccc2c(Br)cc(Br)c(O)c2n1 [HQ-1, reference compound]
% Haemolysis at 200 μM (human red blood cells; Table 2, human red blood cells, 1 hour at 37° C.): ≤1%
% Haemolysis at 200 μM (human red blood cells; Table 3, human red blood cells): ≤1%
VRE MIC ([1]; Table 3): 2.35^a μM
MIC [2]: 0.39 µM (≈ 0.124 µg/mL)
MRSE MIC ([2]; Table 3): 0.30^a μM
VRE ATCC 700221 MBEC [3, 8]: 1.5 µM
MBC ([3]; Table 2, read-out: VRE ATCC 700221 MBC): 2.0 µM (≈ 0.634 µg/mL)
VRE MBEC ([3]; Table 3, biofilm eradication, second value of cell, footnote c = lowest concentration tested): 1.5 µM
MBC ([3]; Table 3, footnote c = lowest concentration tested, read-out: VRE MBC): 2.0 µM (≈ 0.634 µg/mL)
MRSE ATCC 35984 MBEC [4, 8]: 93.8 µM
MBC ([4]; Table 2, read-out: MRSE ATCC 35984 MBC): 31.3 µM (≈ 9.92 µg/mL)
MRSE MBEC ([4]; Table 3, biofilm eradication, second value of cell): 93.8 µM
MBC ([4]; Table 3, read-out: MRSE MBC): 31.3 µM (≈ 9.92 µg/mL)
MIC w/Fe^2+ (MRSA-2; 200 μM ammonium iron (II) sulfate hexahydrate): >100^b μM and >100^c μM
MIC w/Cu^2+ (MRSA-2; 200 μM copper (II) sulfate): 25^b μM and 25^c μM
MIC (MRSA-2; 200 μM magnesium (II) sulfate, read-out: MIC w/Mg^2+): 1.56 µM
MIC w/Zn^2+ (MRSA-2; 200 μM zinc (II) chloride): 0.15^a,b μM and 0.1^a,c μM
MIC (A. baumannii): 32 µg/mL
MIC (A. baumannii; read-out: MIC): 100 µM
MRSA BAA-1707 MBEC (MRSA BAA-1707; biofilm eradication, second value of cell): 46.9 µM
MBC (MRSA BAA-1707; planktonic killing, first value of cell, read-out: MRSA BAA-1707 MBC): 62.5 µM (≈ 19.8 µg/mL)
MRSA-2 Clinical Isolate MBEC ([5]; Table 2, biofilm eradication, second value of MBC/MBEC cell): 188 µM
MBC ([5]; Table 2, read-out: MRSA-2 Clinical Isolate MBC): 23.5 µM (≈ 7.45 µg/mL)
MRSA-2 MBEC ([5]; Table 3, biofilm eradication, second value of MBC/MBEC cell): 188 µM
MBC ([5]; Table 3, read-out: MRSA-2 MBC): 23.5 µM (≈ 7.45 µg/mL)

MIC ([1]; Table 2, ATCC 700221, read-out: VRE MIC): 75 µM (≈ 43.5 µg/mL)
MIC ([2]; Staphylococcus epidermidis): 9.38 µM (≈ 5.44 µg/mL)
MIC ([6]; Table 2, 2 to 6 independent experiments, read-out: MRSA-2 MIC): 18.8 µM (≈ 10.9 µg/mL)
MIC ([6]; read-out: MIC): > 100 µM
MIC (MRSA-2; Staphylococcus aureus, 200 μM ammonium iron (II) sulfate hexahydrate, read-out: MIC w/Fe^2+): > 100 µM
MIC (MRSA-2; Staphylococcus aureus, 200 μM copper (II) sulfate, read-out: MIC w/Cu^2+): > 100 µM
MIC (MRSA-2; Staphylococcus aureus, 200 μM magnesium (II) sulfate, read-out: MIC w/Mg^2+): > 100 µM
MIC (MRSA-2; Staphylococcus aureus, 200 μM zinc (II) chloride, read-out: MIC w/Zn^2+): > 100 µM
MIC [7]: 9.38 to 75 µM (≈ 5.44 to 43.5 µg/mL)
SMILES: Cc1c(Br)cc(NCc2ccc3c(Br)cc(Br)c(O)c3n2)cc1Br [HQ-7]
% Haemolysis at 200 μM (human red blood cells; human, 1 h, pH 7.2): ≤1%
MBC ([3]; Enterococcus, Table 2, read-out: VRE ATCC 700221 MBC): 125 µM (≈ 72.5 µg/mL)
MBC ([4]; Staphylococcus epidermidis, Table 2, read-out: MRSE ATCC 35984 MBC): 250 µM (≈ 145 µg/mL)
MBC ([5]; Staphylococcus aureus, MRSA, Table 2, read-out: MRSA-2 Clinical Isolate MBC): 500 µM (≈ 290 µg/mL)
